The text below walks through data of patent US20240287062A1, “NAPHTHYRIDONE COMPOUNDS FOR INHIBITION OF RAF KINASES AND/OR BCR-ABL TYROSINE KINASES” (Enliven Inc., priority 2021, published 2024).

Holding throughout (format): cell-based
Data set [1] concerns phosphorylated ERK (pERK). In words: Detection of phosphorylated ERK (pERK), AlphaLISA in A375 cells. The following applies: four hours incubation, inhibition of ERK phosphorylation, read-out: PERK ELISA (IC50). The protocol: A375 cells were counted and seeded at 10,000 cells/well in 384 well plates (Corning 3764) and allowed to adhere overnight.
Compounds were dissolved and serially diluted in DMSO. The compounds were then added, mixed, and incubated for four hours at 37° C., 5% CO2. Compounds were added using four-fold dilutions at final concentrations ranging from 10 μM to 0.01 nM. DMSO only and 10 uM staurosporine were added as high and low controls.
Following the four-hour incubation with compounds, cell lysates were prepared and AlphaLISA assay measuring phosphorylated ERK was performed. Media was removed using the Apricot Designs pipettor. Lysis buffer was made from 1× AlphaLISA SureFire Assay Kit (AlphaLISA SureFire Ultra pERK 12 (Thr202/Tyr204) ALSU-PERK-A50K) lysis buffer with protease and phosphatase inhibitors. Cells were lysed by adding 10 uL to all the wells and mixed for 40 minutes on a plate shaker. 10 uL cell lysate was transferred to a new Optiplate (PerkinElmer 6007290) and incubated with 5 uL 1× acceptor mix for 2 hours in the dark. 5 uL of 1× donor mix was added to all wells and mixed by shaking followed by overnight incubation in the dark.
pERK AlphaLISA signal was read on the Envision using standard AlphaLISA settings. Percent inhibition of ERK phosphorylation was calculated by % Inhibition=100×(LumHC−LumSample)/(LumHC−LumLC). The low and high controls (LC/HC) are generated from lysate from wells with cells treated with DMSO or […] Staurosporine (BioAustralis, cat #BIA-S1086), […]. IC50 values were calculated by fitting the Curve using XLfit (v5.3.1.3), equation 201: Y=Bottom+(Top−Bottom)/(1+10^((Log IC50−X)*HillSlope)).
(Bead proximity is the source of the signal in Alpha formats.)

For the next data set, the system named is A375 (BRAF V600E). In words: Cell viability assay (CellTiter Glo). As for the experimental part:
(§1) Cell viability was measured in the following MAPK pathway mutant cancer cell lines: A375 (BRAF V600E), HepG2 (NRAS Q61L), SK-MEL-30 (NRAS Q61K), and OCI-AML-2 (MBNL1-CRAF fusion). Cell viability was also measured in K562 cells.
(§2) A375, HepG2, SK-MEL-30 and OCI-AML-2 cells were grown in the appropriate growth medium as described in Table B2 below, and harvested at 50-80% confluence. Cells were counted and seeded at their appropriate density (see Table B1) in a 384-well plate (Corning 3570). A375, HepG2 and SK-MEL-30 were allowed to adhere overnight prior to treatment and the OCI-AML-2 were treated immediately for the indicated drug treatment times (Table 6).
(§3) Table 6 provides the growth media, number of cells seeded per well and drug treatment times for the each cell line. K562 cells were grown as described in Example B1 above.
(§4) Compounds were dissolved in DMSO and serially diluted. Serially-diluted compound or a DMSO only control (high control, “HC”) was added to the plated cells in each well. Compounds were tested at concentrations of about 10 μM to 0.51 nM, using three-fold dilutions. The final proportion of DMSO never exceeded 0.1%.
(§5) Plates were placed in a 37° C., […] incubator for the indicated treatment times (Table B1). Plates were then removed from the incubator and equilibrated for 15 minutes at room temperature. 40 μl of CellTiter Glo reagent (Promega) was added to measure the relative level of metabolically active cells by quantifying intracellular ATP concentrations. Plates were incubated for 30 minutes at room temperature, and luminescence was measured. Percent viability was normalized to a vehicle control only using the following formula: 0 viability=100×(LumSample−LumLC)/(LumHC−LumLC). Graphical curves were fitted using a nonlinear regression model with a sigmoidal dose response.
Background: Cellular ATP, detected with luciferase, serves as a proxy for viable cell number.

The next data set concerns HepG2 (NRAS Q61L). In words: Cell viability assay (CellTiter Glo). The following applies: HepG2, 750 cells per well, read-out: BRAF Cytotoxicity (IC50, nM) HEPG2. As for the experimental part: as §1, §2, §3, §4, §5
The next data set has as its system SK-MEL-30 (NRAS Q61K). In words: Cell viability assay (CellTiter Glo). The settings on record: SK-MEL-30, 750 cells per well, read-out: BRAF Cytotoxicity (IC50, nM) SK-MEL-30. The protocol:
as §1, §2, §3, §4, §5

Data set [2] deals with OCI-AML-2 (MBNL1-CRAF fusion). In words: Cell viability assay (CellTiter Glo). The following applies: OCI-AML-2, 1000 cells per well, read-out: BRAF Cytotoxicity (IC50, nM) OCI-AML-2. The protocol:
as §1, §2, §3, §4, §5

The next data set concerns K562 cells. The data set is described as follows: Cell viability assay (CellTiter Glo). The settings on record: K562 cells grown as in Example B1, read-out: BRAF Cytotoxicity (IC50, nM) K562. The protocol:
K562 cells, cultured in Iscove's Modified Dulbecco's Media (IMDM) supplemented with 10% FBS, were harvested at 50-80% confluency and plated at 2,000 cells per well in 384-well tissue culture plates. A subset of wells contained media only (low control, LC). Compounds were serially diluted in DMSO. 40 nL of compound or DMSO only (high control, HC) were added to each well using an Echo 550 liquid handler (Labcyte). The plates were placed in a 37° C. incubator with 5% CO2 for 72 hours. Cell viability was measured using a CellTiter-Glo luminescent cell viability assay (Promega), which allows for relative quantification of metabolically active cells by luminescence-based measurements of intracellular ATP concentrations. Briefly, plates were removed from the incubator and equilibrated for 15 minutes at room temperature prior to the addition of 40 μL of CellTiter-Glo reagent. Plates were then incubated for 30 minutes at room temperature. Luminescence was measured using an EnSpire plate reader (Perkin Elmer). As noted above, luminescence values from wells with DMSO only or media without cells were used as high and low controls (HC and LC), respectively. Normalized percent viability was calculated as follows: percent viability=100×(LumSample−LumLC)/(LumHC−LumLC). IC50 values were calculated using the XLFit software.
as §1, §3, §4, §5

[3] abbreviates: A375, 250 cells seeded per well, 72 hours, read-out: BRAF Cytotoxicity (IC50, nM) A375 (250 cells).
Where [4] appears, read: A375, 1000 cells seeded per well, 72 hours, read-out: BRAF Cytotoxicity (IC50, nM) A375 (1000 cells).
Setting [5] is: Homo sapiens, A-375, 72 h, A375, 250 cells seeded per well, read-out: BRAF Cytotoxicity (IC50, nM) A375 (250 cells).
[6] abbreviates: Homo sapiens, A-375, 72 h, A375, 1000 cells seeded per well, read-out: BRAF Cytotoxicity (IC50, nM) A375 (1000 cells).

Like-named read-outs stand apart in the source and are kept apart here.

The IC50 is the concentration needed to halve the response being measured.

For the molecule `CCCC(O)c1cc(C)c(-c2cc3cnc(NC(=O)[C@H]4C[C@H]4F)cc3n(C)c2=O)cn1` (single isomer, unassigned) [Example S43, Isomer B], the 50% inhibitory concentration (IC50) in data set [1] was 14.7 nM; in the data set with A375 (BRAF V600E) (setting [3]), 335 nM; in the data set on A375 (BRAF V600E) (setting [4]) it was 189 nM; with HepG2 (NRAS Q61L) (120 hours), 843 nM; with SK-MEL-30 (NRAS Q61K) (120 hours) it was more than 6150 nM; in data set [2] (72 hours), 2710 nM.

With `CC[C@H](O)c1cc(C)c(-c2cc3cnc(NC(=O)C4CC4)cc3n(C)c2=O)cn1` [Compound 69, N-(3-[6-[(1S)-1-hydroxypropyl]-4-methylpyridin-3-yl]-1-methyl-2-oxo-1,6-naphthyridin-7-yl)cyclopropanecarboxamide], the IC50 in data set [1] (Homo sapiens, A-375, 4 h) is 43.1 nM; in the data set on A375 (BRAF V600E) (setting [5]), 372 nM; in the data set with A375 (BRAF V600E) (setting [6]) it was 354 nM; with HepG2 (NRAS Q61L) (Homo sapiens, HepG2, 120 h), 107 nM; in the data set with SK-MEL-30 (NRAS Q61K) (Homo sapiens, SK-MEL-30, 120 h), 517 nM; in data set [2] (Homo sapiens, OCI-AML2, 72 h) it was 485 nM. Also, the IC50 in the data set on K562 cells (Homo sapiens) stood at 496 nM.

With `CCC(=O)c1cc(C)c(-c2cc3cnc(NC(=O)[C@H]4C[C@H]4F)cc3n(C)c2=O)cn1` [Compound 148, (1R,2R)-2-fluoro-N-(1-methyl-3-(4-methyl-6-propionylpyridin-3-yl)-2-oxo-1,2-dihydro-1,6-naphthyridin-7-yl)cyclopropane-1-carboxamide], the IC50 stood at 19.3 nM in data set [1] (Homo sapiens, A-375, 4 h) and 2640 nM in the data set with K562 cells (Homo sapiens).

In the case of `CCCC(O)c1cc(C)c(-c2cc3cnc(NC(C)=O)cc3n(C)c2=O)cn1` (single isomer, unassigned) [Example S67, Enantiomer A, N-(3-{6-[1-hydroxybutyl]-4-methylpyridin-3-yl}-1-methyl-2-oxo-1,6-naphthyridin-7-yl)acetamide], the IC50 is 7.23 nM in data set [1]; 215 nM with A375 (BRAF V600E) (setting [5]); 252 nM in the data set on HepG2 (NRAS Q61L) (Homo sapiens, HepG2, 120 h); 974 nM in the data set with SK-MEL-30 (NRAS Q61K) (Homo sapiens, SK-MEL-30, 120 h); 1390 nM in data set [2] (Homo sapiens, OCI-AML2, 72 h); 9480 nM in the data set on K562 cells (Homo sapiens).

For `CCCC(=O)c1cc(C)c(-c2cc3cnc(NC(=O)[C@@H]4C[C@@H]4F)cc3n(C)c2=O)cn1` [Compound 152, (1S,2S)—N-(3-(6-butyryl-4-methylpyridin-3-yl)-1-methyl-2-oxo-1,2-dihydro-1,6-naphthyridin-7-yl)-2-fluorocyclopropane-1-carboxamide], the concentration for half-maximal inhibition (IC50) turned out to be 8.99 nM in data set [1] (Homo sapiens, A-375, 4 h); 116 nM in the data set with A375 (BRAF V600E) (setting [5]); 257 nM in the data set on HepG2 (NRAS Q61L) (Homo sapiens, HepG2, 120 h); 585 nM in the data set on SK-MEL-30 (NRAS Q61K) (Homo sapiens, SK-MEL-30, 120 h); 412 nM in data set [2] (Homo sapiens, OCI-AML2, 72 h); 534 nM in the data set on K562 cells (Homo sapiens).

As for `CCC(O)c1cc(C)c(-c2cc3cnc(NC(C)=O)cc3n(C)c2=O)cn1` (single isomer, unassigned) [Example S59, Enantiomer A, N-(3-(6-(1-hydroxypropyl)-4-methylpyridin-3-yl)-1-methyl-2-oxo-1,2-dihydro-1,6-naphthyridin-7-yl)acetamide], the concentration for half-maximal inhibition (IC50) was 78.5 nM in data set [1] and more than 10000 nM with K562 cells (Homo sapiens).

On to `CCC(O)c1cc(C)c(-c2cc3cnc(NC(=O)[C@@H]4C[C@@H]4F)cc3n(C)c2=O)cn1` (single isomer, unassigned; isomer a) [Example S40, Isomer A], for which the IC50 in data set [1] was 47.4 nM; in the data set on A375 (BRAF V600E) (setting [4]), 492 nM; with HepG2 (NRAS Q61L) (120 hours), 211 nM; in the data set on SK-MEL-30 (NRAS Q61K) (120 hours), 446 nM; in data set [2] (72 hours), 496 nM; with K562 cells, 1230 nM.

Turning to `CCCC(O)c1cc(C)c(-c2cc3cnc(NC(=O)[C@H]4C[C@H]4F)cc3n(C)c2=O)cn1` (single isomer, unassigned) [Example S43, Isomer A], the IC50 in data set [1] (Homo sapiens, A-375, 4 h) turned out to be 8.01 nM; in the data set on A375 (BRAF V600E) (setting [3]), 152 nM; in the data set on A375 (BRAF V600E) (setting [4]) it was 52.1 nM; in the data set on HepG2 (NRAS Q61L) (120 hours), 82.1 nM; with SK-MEL-30 (NRAS Q61K) (120 hours), 399 nM; in data set [2] (72 hours) it was 457 nM. For the same molecule, the IC50 in the data set on K562 cells (Homo sapiens) came out at 1690 nM.

As to `CC[C@H](O)c1cc(C)c(-c2cc3cnc(NC(=O)[C@H]4C[C@H]4F)cc3n(C)c2=O)cn1` [Compound 108, (1R,2R)-2-fluoro-N-(3-(6-((S)-1-hydroxypropyl)-4-methylpyridin-3-yl)-1-methyl-2-oxo-1,2-dihydro-1,6-naphthyridin-7-yl)cyclopropane-1-carboxamide], the half-inhibitory concentration (IC50) in data set [1] (Homo sapiens, A-375, 4 h) stood at 17.4 nM; in the data set on A375 (BRAF V600E) (setting [5]), 422 nM; in the data set with A375 (BRAF V600E) (setting [6]), 308 nM; in the data set with HepG2 (NRAS Q61L) (Homo sapiens, HepG2, 120 h), 88.7 nM; in the data set on SK-MEL-30 (NRAS Q61K) (Homo sapiens, SK-MEL-30, 120 h), 311 nM; in data set [2] (Homo sapiens, OCI-AML2, 72 h) it was 309 nM. In the data set on K562 cells (Homo sapiens), the IC50 was determined as 1980 nM.

In the case of `CCC(O)c1cc(C)c(-c2cc3cnc(NC(=O)[C@H]4CC4(F)F)cc3n(C)c2=O)cn1` (single isomer, unassigned) [Example S49, Isomer A], the IC50 in data set [1] is 73.8 nM; with HepG2 (NRAS Q61L) (120 hours), 2750 nM; with SK-MEL-30 (NRAS Q61K) (120 hours), more than 10000 nM; in data set [2] (72 hours), more than 10000 nM.

As for `CCC(O)c1cc(C)c(-c2cc3cnc(NC(=O)[C@H]4CC4(F)F)cc3n(C)c2=O)cn1` (single isomer, unassigned) [Example S49, Isomer B], the IC50 in data set [1] was 8.64 nM; in the data set with A375 (BRAF V600E) (setting [5]), 74.9 nM; in the data set with HepG2 (NRAS Q61L) (120 hours), 12.6 nM; with SK-MEL-30 (NRAS Q61K) (120 hours), 103 nM; in data set [2] (72 hours) it was 153 nM; in the data set on K562 cells (Homo sapiens), 733 nM.
